Assay results from BigSolDB 2.1.

O=C(O)CCCc1c[nH]c2ccccc12
solubility (mole fraction)
Settings	283.15 K	288.15 K	293.15 K	298.15 K	303.15 K	308.15 K	313.15 K	318.15 K	323.15 K
in 2-butanone	0.123	0.139	0.152	0.168	0.185	0.198	0.218	0.24	0.264
in acetone	0.22	0.24	0.257	0.274	0.291	0.315	0.339	0.365	0.399
in acetonitrile	0.0411	0.0531	0.0654	0.0814	0.104	0.123	0.155	0.192	0.256
in dimethyl carbonate	0.0194	0.022	0.0287	0.0354	0.0453	0.0535	0.0644	0.0827	0.101
in ethanol	0.048	0.0557	0.0642	0.0753	0.0886	0.1	0.116	0.141	0.171
in ethyl acetate	0.049	0.0582	0.0689	0.0808	0.0914	0.103	0.122	0.145	0.17
in ethyl lactate	0.101	0.106	0.117	0.128	0.14	0.151	0.165	0.19	0.22
in isobutanol	0.0213	0.0253	0.0315	0.0379	0.0477	0.0581	0.0697	0.0857	0.102
in isobutyl acetate	0.0355	0.0429	0.0498	0.0572	0.0649	0.0736	0.0848	0.0958	0.11
in isopentanol	0.0309	0.0348	0.0412	0.0505	0.0601	0.0725	0.0858	0.0985	0.116
in isopropanol	0.0406	0.0494	0.0599	0.0724	0.0859	0.0984	0.112	0.128	0.143
in isopropyl acetate	0.0492	0.0628	0.0711	0.0813	0.0905	0.101	0.11	0.124	0.149
in methanol	0.0481	0.0562	0.0656	0.0777	0.0922	0.104	0.123	0.153	0.181
in methyl acetate	0.0573	0.0623	0.0701	0.0812	0.0909	0.106	0.126	0.154	0.19
in n-butanol	0.0362	0.0422	0.0495	0.0582	0.0688	0.0786	0.0961	0.112	0.134
in n-butyl acetate	0.0582	0.0645	0.0726	0.0797	0.0885	0.0977	0.112	0.129	0.141
in n-pentanol	0.0362	0.0408	0.0486	0.058	0.0674	0.0764	0.0929	0.108	0.124
in n-propanol	0.0385	0.0446	0.0534	0.0605	0.0727	0.0863	0.0994	0.112	0.139
in sec-butanol	0.0417	0.0486	0.0582	0.0692	0.0829	0.0964	0.111	0.13	0.163
